Data as given in patent US20080260682A1, “Polyethylene glycol colonic purgative composition” (Salix Pharmaceuticals, Inc., priority 2005, published 2008).

Test system: normal healthy subjects
Conditions: in vivo
Procedure: In addition, the safety and tolerability of the PEG 8000 was evaluated.
This study was a double-blinded, randomized, crossover study with 16 healthy male subjects. Subjects were randomly assigned to one of two dosing sequences: Sequence A (n=9) or Sequence B (n=6). For each dosing sequence there were three scheduled visits: a screening visit (Visit 0) and two treatment visits (Visits 1 and 2). […] At the beginning of day 4, the standardized diet ended and subjects were given a low fiber breakfast followed by clear liquids for the rest of the day. On day 5, patients received nothing by mouth (NPO) after the administration of the test materials.
A baseline period measurement period began at 6 p.m. on day 2 and lasted 48 hours. During the baseline period, all bowel movements were collected, recorded, and assessed for consistency and weight. At 6 p.m. on day 4, the test article administration began. […] In both dosing sequences, Visit I was followed by a two-week washout period before subjects crossed over to begin visit 2. During the observation period of test article administration, all bowel movements were collected, recorded, and assessed for consistency and weight. The observation period of test article administration began when the test article was administered and continued until 11 a.m. on day 5.
Subjects drank another 5 doses in the same manner beginning at 6:00 a.m. on day 5.

## polyethylene glycol 8000 [PEG 8000]
  serious events, severe events, deaths: no serious events, no severe events, and no deaths
